pIC50, pKi: −log10 of the molar value. Values joined by “and” are separate entries in the source; they are usually repeats but may differ in a detail not shown here. Identical values can stand only once. Counter-ions that a name gives are not always drawn. Like-named read-outs stand apart in the source and are kept apart here.
Tests used:
[1] = tested on: IL-6 Secretion in Human Conjunctival Epithelial Cells; assay: Inhibition of histamine-stimulated IL-6 secretion in cultured human conjunctival epithelial cells (ELISA); assay type: cell-based; settings: for pIC50: Homo sapiens, read-out: IL-6 IC50
Excerpt: (§1) Methods detailing the preparation of primary epithelial cell cultures and cytokine release studies using these cells have been described. See […], et al., "Secretion of proinflammatory cytokines by human conjunctival epithelial cells," Ocul Immunol Inflamm., 5:117-128 (1997). Briefly, cultures of human conjunctival epithelial cells were initiated from donor tissues obtained within eight hours post mortem by various eye banks. The tissues were enzymatically digested overnight. Epithelial cells were gently scraped from the tissue surface, dissociated into a single cell suspension, and cultured in keratinocyte growth medium (Clonetics® , San Diego, CA). Cells were used only through passage 6. Cultures were maintained in a preconfluent state to prevent differentiation. Cells were identified as epithelial by positive keratin staining. […] Cells were plated at 2x10^4 cells/well and cultured overnight at 5% CO2/37°C. The following day, fresh medium containing test compound was added directly to wells and the cells were incubated for 30 minutes prior to 24-hour stimulation with histamine (30 μM). Three separate culture wells were used for each treatment group. At harvest, supernatants were collected, centrifuged at 200 x g, and stored at -20°C. Samples were analyzed for IL-6 and IL-8 by ELISA (R&D Systems, Minneapolis, MN) as directed by the manufacturer. The sensitivities of each ELISA are as follows: […] The antagonist potency (IC50) was defined as the concentration of the drug required to produce 50% inhibition of the agonist-stimulated functional response. Data derived from the cytokine assays were calculated as mean and standard error (SEM) values which represent the variability among identically treated culture wells. The dose-dependent effect of pharmacological agents and IC50's were determined by linear regression. Data are expressed as mean ± S.E.M. from 3 - 5 independent experiments.

[2] = target: histamine H1-receptor; settings: published values (Sharif et al. 1994; Yanni et al. 1997), read-out: H1 Binding Ki, cited from earlier work
[3] = tested on: IL-8 Secretion in Human Conjunctival Epithelial Cells; assay: Inhibition of histamine-stimulated IL-8 secretion in cultured human conjunctival epithelial cells (ELISA); assay type: cell-based; settings: for pIC50: Homo sapiens, read-out: IL-8 IC50
Excerpt: as §1

[4] = HCE cells, 30 minutes preincubation with test compound, then 24-hour stimulation with histamine (30 µM), ELISA
[5] = IL-6 and IL-8 secretion IC50 compared with H1 binding affinity
[6] = HCE exposed to 30 µM of histamine

Compound	pIC50 [1, 4]	pIC50 [3, 4]	less potent inhibitors of IL-6 and IL-8 secretion than predicted from their histamine H1-receptor binding affinities [1, 5]	pKi [2]	other results
C[C@@H]1CN([C@H]2CC[C@](C#N)(c3ccc(F)cc3)CC2)CC[C@]1(C(=O)O)c1ccccc1 [Levocabastine, (-)-traps-1-[cis-4-Cyano-4-(p-fluorophenyl)cyclohexyl]-3-methyl-4-phenylisonipecotic acid monohydrochloride]	7.60	7.92		7.28	
CN(C)CC/C=C1/c2ccccc2COc2ccc(CC(=O)O)cc21 [Olopatadine, Z-11-(3-Dimethylaminopropylidene)-6,11-dihydrodibenz[b,e]oxepin-2-acetic acid]				7.44 and 7.41 to 7.49	pIC50 ([1]; HCE): 8.26; more potent as an inhibitor of cytokine secretion than predicted from binding data [1, 5]: approximately 10 fold; pIC50 ([3]; HCE): 8.77
NCCc1c[nH]cn1 [histamine]					increased IL-6 secretion [1, 6]: 1.59 ± 0.19 fold above basal levels; increased IL-8 secretion [3, 6]: 1.80 ± 0.28 fold above basal levels

The next lines start with results.

pIC50 [1, 4]	pIC50 [3, 4]	Compound	less potent inhibitors of IL-6 and IL-8 secretion than predicted from their histamine H1-receptor binding affinities [1, 5]	pKi [2]	other results
5.99	6.19	c1ccc(CN(CC2=NCCN2)c2ccccc2)cc1 [Antazoline, 4,5-Dihydro-N-phenyl-N-(phenylmethyl)-1 H-imidazole-2-methanamine]	20 - 140 fold	7.42	pKi ([2]; listed as antazoline): 7.41 to 7.49
8.60	8.40	CCOCCn1c(N2CCCN(C)CC2)nc2ccccc21 [Emedastine, 1H-Benzimidazole,1-(2-ethoxyethyl)-2-(hexahydro-4-methyl-1H-1,4-diazepin-1-yl),(E)-2-butenedioate (1:2)]		8.91	
5.32	5.92	CN(C)CCC(c1ccccc1)c1ccccn1 (stereo not shown) [Pheniramine, N,N-Dimethyl-γ-phenyl-2-pyridine-propanamine]	20 - 140 fold	7.47	pKi ([2]; listed as pheniramine): 7.41 to 7.49
